Experiments:
[1] = test system: resveratrol prenyltransferase AhR4DT; test: Prenyltransferase assay with microsomal fraction of elicited peanut hairy roots; type: biochemical, Arachis hypogaea; conditions: for resveratrol prenyltransferase activity relative to Mg^2+: 10 mM divalent cation; for prenylation as prenyl acceptor: 100 μM acceptor, 300 μM DMAPP
AhR4DT-1 = AhR4DT-1 (Arachis hypogaea, UniProt A0A2H4GDC8); test: AhR4DT-1 activity in microsomal fraction of N. benthamiana leaves; conditions: for AhR4DT-1 activity relative to Mg^2+: 10 mM divalent cation or EDTA; for activity as prenyl donor: 300 μM donor, 100 μM resveratrol as prenyl acceptor; for prenylation as prenyl acceptor: DMAPP as prenyl donor
AhR4DT-1, sequence (A0A2H4GDC8 entry or part of it): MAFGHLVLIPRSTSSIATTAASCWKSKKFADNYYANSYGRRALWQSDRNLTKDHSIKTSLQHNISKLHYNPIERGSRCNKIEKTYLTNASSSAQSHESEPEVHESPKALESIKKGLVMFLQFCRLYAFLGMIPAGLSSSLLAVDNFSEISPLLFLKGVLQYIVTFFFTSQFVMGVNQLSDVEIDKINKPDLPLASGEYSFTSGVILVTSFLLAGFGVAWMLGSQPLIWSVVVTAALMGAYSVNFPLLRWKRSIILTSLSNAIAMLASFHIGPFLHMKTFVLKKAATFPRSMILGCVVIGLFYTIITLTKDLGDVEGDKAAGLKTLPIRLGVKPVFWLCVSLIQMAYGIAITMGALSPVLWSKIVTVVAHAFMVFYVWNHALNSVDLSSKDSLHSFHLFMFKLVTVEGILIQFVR

AhR3′DT-1 = AhR3′DT-1 (Arachis hypogaea, UniProt A0A2H4GDD0); test: AhR3′DT-1 activity in microsomal fraction of N. benthamiana leaves; conditions: for AhR3′DT-1 activity relative to Mg^2+: 10 mM divalent cation or EDTA; for activity as prenyl donor: 300 μM donor, 100 μM resveratrol as prenyl acceptor; for prenylation as prenyl acceptor: DMAPP as prenyl donor
AhR3′DT-1, sequence (A0A2H4GDD0 entry or part of it): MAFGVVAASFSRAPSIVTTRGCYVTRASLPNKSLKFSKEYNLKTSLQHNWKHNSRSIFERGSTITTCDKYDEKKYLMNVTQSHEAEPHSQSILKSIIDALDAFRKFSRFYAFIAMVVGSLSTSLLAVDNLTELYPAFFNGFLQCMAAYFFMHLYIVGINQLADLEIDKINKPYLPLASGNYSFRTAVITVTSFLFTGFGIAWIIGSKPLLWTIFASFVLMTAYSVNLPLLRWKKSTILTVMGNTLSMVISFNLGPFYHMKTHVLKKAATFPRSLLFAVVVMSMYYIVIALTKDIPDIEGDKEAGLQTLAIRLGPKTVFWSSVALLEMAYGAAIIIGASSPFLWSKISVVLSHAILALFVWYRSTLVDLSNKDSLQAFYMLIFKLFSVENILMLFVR

[2] = test system: peanut hairy root cultures; test: Inhibitor feeding experiment in elicited peanut hairy root cultures; type: cell-based, Arachis hypogaea
resveratrol prenylation = test: Screening for stilbenoid prenylation activity, crude extract of infiltrated N. benthamiana leaves; type: biochemical, Arachis hypogaea; conditions: resveratrol and DMAPP as substrates
Protocol: The engineered A. tumefaciens was grown in 5 mL of YEP medium, containing 50 mg/L of kanamycin (Sigma-Aldrich) and 30 mg/L of streptomycin (Sigma-Aldrich) for antibiotic selection, at 28° C. on an orbital shaker at 200 rpm. After cultivation for 2 days, 5 mL of bacterial suspension was inoculated into 50 mL of fresh YEP medium containing the antibiotics and allowed to grow for one additional day under the same conditions. Bacteria were pelleted by centrifugation, resuspended in 500 mL of induction medium containing 10 mM MgCl2 with 1 mM acetosyringone and incubated for 4 h at 28° C. under 200 rpm orbital shaking until their OD600 reached to a range from 0.5 to 0.6. Before the infiltration, 0.005% of Tween-20, 0.005% of Triton 100 and 0.005% of Silwet L-77 were added to bacterial cultures to enhance the efficiency of transformation in N. benthamiana leaves. Agrobacterium-mediated vacuum infiltration was performed on 4-week-old N. benthamiana following the methodology described previously (Medrano et al., 2009).
After 48 hours of post-infiltration, the “middle tier” of N. benthamiana leaves were harvested for prenylation activity screening. Five grams of leaf tissue (fresh weight) were grounded and homogenized using a mortar with pestle in 10 mL of extraction buffer containing 100 mM Tris-HCl (pH 7.6) and 10 mM dithiothreitol (DTT). […] The total protein concentration was determined by coomassie protein assay (Thermo Scientific) using bovine serum albumin as standard.
The reaction of crude cell-free extract of N. benthamiana leaves infiltrated with A. tumefaciens harboring the empty pBIB-Kan vector was used as control.

[3] = 100 clomazone with elicitors, 72 h
[4] = 10 μM mevastatin, 72-h treatment

Q: `[Ca+2]` [Ca^2+] was tested. Which “resveratrol prenyltransferase activity relative to Mg^2+” value [1] did it give?
A: The value was 0.9%.

Q: For `CC(C)=CCOP(=O)(O)OP(=O)(O)O` [DMAPP, dimethylallyl pyrophosphate], which Km ([1]; microsomal fraction of peanut hairy roots, 28° C., 60 min, read-out: apparent km) is on record?
A: The Km was 91.9 ± 7.03 µM.

Q: What about the “Vmax for AhR4DT-1 relative to AhR3′DT-1” value (AhR4DT-1) of the same molecule?
A: Its value is 5.8 fold.

Q: What does the source list for `O=C(O)CN(CCN(CC(=O)O)CC(=O)O)CC(=O)O` [EDTA]?
A: AhR4DT-1 activity relative to Mg^2+ (AhR4DT-1): no activity was detected; AhR3′DT-1 activity relative to Mg^2+ (AhR3′DT-1): no activity was detected

Q: Which “activity as prenyl donor” value (AhR4DT-1) does the source give for `CC(C)=CCC/C(C)=C/CC/C(C)=C/COP(=O)(O)OP(=O)(O)O` [FPP, farnesyl pyrophosphate] here?
A: Its value is “Neither AhR4DT-1 nor AhR3′DT-1 showed any detectable activity”.

Q: And the “activity as prenyl donor” value (AhR3′DT-1)?
A: Its value is “Neither AhR4DT-1 nor AhR3′DT-1 showed any detectable activity”.

Q: What does the source list for `[Fe+2]` [Fe^2+]?
A: resveratrol prenyltransferase activity relative to Mg^2+ [1]: 14.6%; AhR4DT-1 activity relative to Mg^2+ (AhR4DT-1): 6.4%; AhR3′DT-1 activity relative to Mg^2+ (AhR3′DT-1): 34.8%

Q: How did the “activity as prenyl donor” value (AhR4DT-1) turn out when `CC(C)=CCC/C(C)=C/CC/C(C)=C/CC/C(C)=C/COP(=O)(O)OP(=O)(O)O` [GGPP, geranylgeranyl pyrophosphate] was run?
A: The value was “Neither AhR4DT-1 nor AhR3′DT-1 showed any detectable activity”.

Q: And the “activity as prenyl donor” value (AhR3′DT-1)?
A: The value was “Neither AhR4DT-1 nor AhR3′DT-1 showed any detectable activity”.

Q: `CC(C)=CCC/C(C)=C/COP(=O)(O)OP(=O)(O)O` [GPP, geranyl pyrophosphate] was tested. Which “activity as prenyl donor” value (AhR4DT-1) did it give?
A: The value was “Neither AhR4DT-1 nor AhR3′DT-1 showed any detectable activity”.

Q: And the “activity as prenyl donor” value (AhR3′DT-1)?
A: Its value is “Neither AhR4DT-1 nor AhR3′DT-1 showed any detectable activity”.

Q: What does the source list for `[Mg+2]` [Mg^2+]?
A: resveratrol prenyltransferase activity relative to Mg^2+ [1]: 100%; AhR4DT-1 activity relative to Mg^2+ (AhR4DT-1): 100%; AhR3′DT-1 activity relative to Mg^2+ (AhR3′DT-1): 100%

Q: With `[Mn+2]` [Mn^2+] as the molecule, how does the “resveratrol prenyltransferase activity relative to Mg^2+” value [1] read?
A: The value was 71.8%.

Q: What about the “AhR4DT-1 activity relative to Mg^2+” value (AhR4DT-1) of the same molecule?
A: Its value is 83.9%.

Q: What about the “efficiency relative to Mg^2+” value (AhR3′DT-1) of the same molecule?
A: Its value is 2.1 fold.

Q: What about the “AhR3′DT-1 activity relative to Mg^2+” value (AhR3′DT-1) of the same molecule?
A: The value was 210.3%.

Q: With `O=c1cc(-c2ccc(O)cc2)oc2cc(O)cc(O)c12` [apigenin] as the molecule, how does the “prenylation as prenyl acceptor” value (AhR4DT-1) read?
A: The value was “neither prenylated flavanone, prenylated flavone, nor prenylated isoflavone was detected”.

Q: What about the “prenylation as prenyl acceptor” value (AhR3′DT-1) of the same molecule?
A: The value was “neither prenylated flavanone, prenylated flavone, nor prenylated isoflavone was detected”.

Q: What does the source list for `CC1(C)CON(Cc2ccccc2Cl)C1=O` [clomazone]?
A: yields of prenylated stilbenoids compared to non-inhibitor group ([2]; 10 μM and 100 μM clomazone): significantly lower yields of prenylated stilbenoids; yields of resveratrol compared to non-inhibitor group ([2]; 10 μM and 100 μM clomazone): significantly higher yields of resveratrol; piceatannol produced ([2]; 100 μM clomazone): 9.02 µM; resveratrol produced ([2]; 100 μM clomazone): 845.7 µM; accumulation of arachidin-5 and arachidin-1 ([2]; 100 μM clomazone, 48-hour): almost completely inhibited; piceatannol concentration ([2]; 100 μM clomazone, 72 h): increased only slightly; yield of resveratrol [2, 3]: 830.73 ± 25.83 µM; yield of resveratrol relative to non-inhibitor group [2, 3]: 6.3 fold; effects on accumulation of resveratrol and inhibition of prenylated stilbenoids accumulation ([2]; clomazone 1 μM to 100 μM with elicitors): increased with the concentration of clomazone; micromolar increase of resveratrol relative to overall decrease of arachidin-5, -1, -2 and -3 ([2]; clomazone with elicitors): about 1.54 fold; levels of all prenylated stilbenoids ([2]; clomazone, 24-h interval between 48- and 72-h time points): no significant increases; production of stilbenoids without elicitors ([2]; different concentrations of clomazone, no elicitors): none of these stilbenoids was detected

Q: Which “prenylation as prenyl acceptor” value (AhR4DT-1) does the source give for `O=c1c(-c2ccc(O)cc2)coc2cc(O)cc(O)c12` [genistein] here?
A: The value was “neither prenylated flavanone, prenylated flavone, nor prenylated isoflavone was detected”.

Q: What about the “prenylation as prenyl acceptor” value (AhR3′DT-1) of the same molecule?
A: The value was “neither prenylated flavanone, prenylated flavone, nor prenylated isoflavone was detected”.

Q: With `CC[C@H](C)C(=O)O[C@H]1CCC=C2C=C[C@H](C)[C@H](CC[C@@H]3C[C@@H](O)CC(=O)O3)[C@H]21` [mevastatin] as the molecule, how does the “yields of resveratrol, piceatannol and prenylated stilbenoids” value ([2]; 10 μM mevastatin with elicitors) read?
A: Its value is “no significant effect”.

Q: What about the “increase in yield of arachidin-1” value [2, 4] of the same molecule?
A: Its value is 41%.

Q: And the “increase in yield of arachidin-5” value [2, 4]?
A: The value was 27%.

Q: What about the “accumulation of arachidin-5, arachidin-1, arachidin-2 and arachidin-3” value ([2]; 24-h interval between 48 and 72-h treatments) of the same molecule?
A: The value was “did not inhibit the accumulation”.

Q: And the “levels of prenylated stilbenoids” value ([2]; mevastatin at 1, 10, or 100 μM with 100 μM MeJA and 9 g/L CD, preliminary experiments)?
A: Its value is “did not affect the levels of prenylated stilbenoids”.

Q: Which results are given for `O=C1C[C@@H](c2ccc(O)cc2)Oc2cc(O)cc(O)c21` [naringenin]?
A: prenylation as prenyl acceptor (AhR4DT-1): neither prenylated flavanone, prenylated flavone, nor prenylated isoflavone was detected; prenylation as prenyl acceptor (AhR3′DT-1): neither prenylated flavanone, prenylated flavone, nor prenylated isoflavone was detected

Q: How did the “prenylation as prenyl acceptor” value [1] turn out when `Oc1cc(O)cc(/C=C/c2ccc(O)cc2O)c1` [oxyresveratrol] was run?
A: The value was “an isoprene unit was also transferred to oxyresveratrol”.

Q: And the “prenylation as prenyl acceptor” value (AhR4DT-1)?
A: The value was “can selectively catalyze”.

Q: What about the “prenylation as prenyl acceptor” value (AhR3′DT-1) of the same molecule?
A: The value was “prenylated products of piceatannol and prenylated oxyresveratrol were identified”.

Q: `Oc1cc(O)cc(/C=C/c2ccc(O)c(O)c2)c1` [piceatannol, 3,5,3′,4′-tetrahydroxy-trans-stilbene] was tested. Which “prenylation as prenyl acceptor” value [1] did it give?
A: Its value is “catalyzed the synthesis of arachidin-5 as the predominant prenylated product”.

Q: What about the “Vmax for AhR4DT-1 relative to AhR3′DT-1” value (AhR4DT-1) of the same molecule?
A: Its value is 6.9 fold.

Q: And the “prenylation as prenyl acceptor” value (AhR4DT-1)?
A: The value was “can selectively catalyze”.

Q: And the “prenylation as prenyl acceptor” value (AhR3′DT-1)?
A: Its value is “prenylated products of piceatannol and prenylated oxyresveratrol were identified”.

Q: Which “prenylation as prenyl acceptor” value [1] does the source give for `Oc1cc(O)cc(/C=C/c2ccccc2)c1` [pinosylvin] here?
A: Its value is “catalyzed pinosylvin into chiricanine A”.

Q: What about the “prenylation as prenyl acceptor” value (AhR4DT-1) of the same molecule?
A: Its value is “can selectively catalyze”.

Q: What about the “prenylation as prenyl acceptor” value (AhR3′DT-1) of the same molecule?
A: Its value is “no prenylated pinosylvin was produced”.

B1: AhR3′DT-2: stilbenoid prenyltransferase, GenBank KY565246 (protein, listed as Arachis hypogaea)
chain: MPFGLSASFLKSRSFHHHGTRRALWNNNGKLSKEYCIKMQHNYWKNHCTNLKGGSMMSDDKFEKKYLVNATSKNSHDEPKKSQPILEFIKDGMDTFRQFSRLYAFFSFISSGLSSSLLAVDNLSNISPKMFLIGFLQFLIPNCIMFQYIVGVNQLADIEIDKINKPYLPLASGKYSLRNAIIIVASSLLMGFGSAWVLGSRPMFWCLVISTMLMTAYSVNLPLLRWKRSTILATLSLASSMTIGQHIAPFLHMKTVLKKALNYPRSLVFTVVVVSLFYTVISLAKDIPDIEGDKAAGHKTLAIHLGPRRVFWFCISLLQMTYGIAIIMGALSPILWSKIFTVVTHFIMSIILWYRANSVDLSNNDSLQSFYMAIFVFLSVENFLVLFVR
Q: With B1 as the molecule, how does the “activity level relative to AhR3′DT-1” value (resveratrol prenylation) read?
A: Its value is 18%.

B2: AhR3′DT-4: stilbenoid prenyltransferase, GenBank KY565248 (protein, listed as Arachis hypogaea)
chain: MASTSRLLLHASLPPPTTSISKTNSGSHAVIRSIWHNNGKYPKEKTCIETPLLLQHNQKHHYTCDQIKRKHFVKATHAQSKNEPEPQADSAKPIWNSIKDVMHTIQKFSVFYALIGLLSGILSSSLLAVEKLSDLSPTFFISMLQFMAAYSSMQLYTTGVNQLADIEIDKINKPYRPLASSKISFGGGLAIVAASLFMSFGLALMIGSKPLLWGLILIFILMTAYSVNLPFLRWKKSTILTLLSGVPTILTAYNLAPYLHMKTFVLKKPFIFTRSLAFTTVVMTFFYVVISLFKDIPDIEGDKKEGLQTLSIRLGPKRVFWLCISLLEMTYGIAIIMGLTSPFLWSKIFTVMAHAINAWILWFRANSVDLKSKEDFQSFYMFIFKLLYLENVLVLFVR
Q: With B2 as the molecule, how does the “activity level relative to AhR3′DT-1” value (resveratrol prenylation) read?
A: The value was 5%.

B3: AhR3′DT-3: stilbenoid prenyltransferase, GenBank KY565247 (protein, listed as Arachis hypogaea)
chain: MPFGLSASFLKSRSLHHHGWKFLKEREIHKQPLRNTRRALWNNNGKLSKEYCIKMQHNYWKNHCTNLKGGSMMSDDKFEKKYLVNATSKNSHDEPKKSQPILEFIKDGMDTFRQFSRLYAFFSFISSGLSSSLLAVDNLSNISPKMFLIGFLQFLIPNCIMFQYIVGVNQLADIEIDKINKPYLPLASGKYSLRNAIIIVASSLIMGFGSAWVLGSRPMFWCLVISTMLMTAYSVNLPLLRWKRSTILATLSLASSMTIGQHIAPFLHMKTVLKKALNYPRSLVFTVVVVSLFYTVISLAKDIPDIEGDKAAGHKTLAIHLGPRRVFWFCISLLQMTYGIAIIMGALSPILWSKIFTVVTHFIMSIILWYRANSVDLSNNDSLQSFYMAIFVFLSVENFLVLFVR
Q: With B3 as the molecule, how does the “activity level relative to AhR3′DT-1” value (resveratrol prenylation) read?
A: The value was 17%.
